Experimental data: publication PMC7368294 (Proceedings of the National Academy of Sciences of the …, 2020)
Where two headings read alike, the source gives them in different places.

Assays:
[1] = target: Btα1/Btα2/Btα8/Btβ1 nAChR (Bombus terrestris, UniProt A0A9B0BGM1+A0A9B0F4H3+A0A9B2JDZ7+A0A9B2JMX7); assay: two-electrode voltage clamp of Xenopus oocytes, agonist concentration-response; assay type: cell-based
[2] = target: T1, Amα1/Amα2/Amα8/Amβ1 nAChR (Apis mellifera, UniProt A0A7M7MMZ9+A0A8U0WQ70+A0A8U0WQC0+A0A8U0WQD1); assay: as above; assay type: cell-based
Dα1/Dβ1 nAChR = target: T2, Dα1/Dβ1 nAChR (Drosophila melanogaster, UniProt P04755+P09478); assay: cell-based; set-up: species or system Xenopus laevis oocytes; conditions: Oocyte
T2 sequence (P09478 22-567): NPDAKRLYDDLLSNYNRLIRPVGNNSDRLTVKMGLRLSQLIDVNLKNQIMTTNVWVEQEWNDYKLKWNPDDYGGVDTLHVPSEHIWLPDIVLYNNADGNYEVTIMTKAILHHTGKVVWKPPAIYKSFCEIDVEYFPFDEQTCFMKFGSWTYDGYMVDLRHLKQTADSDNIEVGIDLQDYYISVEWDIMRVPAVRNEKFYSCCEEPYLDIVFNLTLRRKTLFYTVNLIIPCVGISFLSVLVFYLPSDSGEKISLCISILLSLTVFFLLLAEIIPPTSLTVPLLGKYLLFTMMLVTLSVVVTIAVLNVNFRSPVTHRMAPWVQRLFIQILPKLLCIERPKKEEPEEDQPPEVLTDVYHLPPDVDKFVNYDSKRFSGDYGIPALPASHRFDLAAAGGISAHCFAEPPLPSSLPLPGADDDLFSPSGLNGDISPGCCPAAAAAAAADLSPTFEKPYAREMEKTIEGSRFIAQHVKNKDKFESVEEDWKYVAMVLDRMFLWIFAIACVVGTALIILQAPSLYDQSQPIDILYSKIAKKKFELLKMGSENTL
T2 sequence (P04755 25-521): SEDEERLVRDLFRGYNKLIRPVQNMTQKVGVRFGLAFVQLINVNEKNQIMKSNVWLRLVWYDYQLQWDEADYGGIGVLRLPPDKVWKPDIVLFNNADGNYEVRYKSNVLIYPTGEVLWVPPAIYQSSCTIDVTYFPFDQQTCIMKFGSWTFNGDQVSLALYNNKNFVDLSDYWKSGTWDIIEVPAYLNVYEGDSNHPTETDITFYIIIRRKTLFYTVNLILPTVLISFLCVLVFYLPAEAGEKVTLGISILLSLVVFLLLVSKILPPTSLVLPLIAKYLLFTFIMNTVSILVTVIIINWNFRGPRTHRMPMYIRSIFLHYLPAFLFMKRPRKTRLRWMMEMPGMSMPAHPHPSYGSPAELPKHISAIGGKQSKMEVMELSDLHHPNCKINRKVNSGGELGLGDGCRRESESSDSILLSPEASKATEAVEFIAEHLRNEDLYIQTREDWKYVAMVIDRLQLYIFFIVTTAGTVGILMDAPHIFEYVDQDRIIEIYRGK

Dα1/Dα2/Dβ1 nAChR = target: T3, Dα1/Dα2/Dβ1 nAChR (Drosophila melanogaster, UniProt P04755+P09478+P17644); assay: cell-based; set-up: species or system Xenopus laevis oocytes; conditions: Oocyte
T3 sequence (P09478 22-567): T2 sequence (P09478 22-567)
T3 sequence (P17644 22-576): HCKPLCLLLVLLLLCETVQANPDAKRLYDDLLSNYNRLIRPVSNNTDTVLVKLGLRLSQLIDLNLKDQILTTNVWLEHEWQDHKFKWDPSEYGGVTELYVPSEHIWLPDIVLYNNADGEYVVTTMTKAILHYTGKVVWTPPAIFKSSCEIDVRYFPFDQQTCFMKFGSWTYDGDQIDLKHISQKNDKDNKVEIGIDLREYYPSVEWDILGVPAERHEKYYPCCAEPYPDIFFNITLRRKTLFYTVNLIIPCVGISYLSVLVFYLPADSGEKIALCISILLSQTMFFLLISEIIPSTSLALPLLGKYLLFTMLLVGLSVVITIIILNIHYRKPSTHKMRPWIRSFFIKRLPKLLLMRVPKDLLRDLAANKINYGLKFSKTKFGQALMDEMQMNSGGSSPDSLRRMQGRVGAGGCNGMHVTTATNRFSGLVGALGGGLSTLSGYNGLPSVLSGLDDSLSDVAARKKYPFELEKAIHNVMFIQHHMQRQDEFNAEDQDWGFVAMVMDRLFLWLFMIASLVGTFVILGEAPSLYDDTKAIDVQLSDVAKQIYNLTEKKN
T3 sequence (P04755 25-521): T2 sequence (P04755 25-521)

[3] = target: T1, Amα1/Amα2/Amα8/Amβ1 nAChR; assay: cell-based; set-up: species or system Xenopus laevis oocytes; conditions: Oocyte

Btα1/Btα2/Btα8/Btβ1 nAChR, sequence (A0A9B0F4H3 44-615): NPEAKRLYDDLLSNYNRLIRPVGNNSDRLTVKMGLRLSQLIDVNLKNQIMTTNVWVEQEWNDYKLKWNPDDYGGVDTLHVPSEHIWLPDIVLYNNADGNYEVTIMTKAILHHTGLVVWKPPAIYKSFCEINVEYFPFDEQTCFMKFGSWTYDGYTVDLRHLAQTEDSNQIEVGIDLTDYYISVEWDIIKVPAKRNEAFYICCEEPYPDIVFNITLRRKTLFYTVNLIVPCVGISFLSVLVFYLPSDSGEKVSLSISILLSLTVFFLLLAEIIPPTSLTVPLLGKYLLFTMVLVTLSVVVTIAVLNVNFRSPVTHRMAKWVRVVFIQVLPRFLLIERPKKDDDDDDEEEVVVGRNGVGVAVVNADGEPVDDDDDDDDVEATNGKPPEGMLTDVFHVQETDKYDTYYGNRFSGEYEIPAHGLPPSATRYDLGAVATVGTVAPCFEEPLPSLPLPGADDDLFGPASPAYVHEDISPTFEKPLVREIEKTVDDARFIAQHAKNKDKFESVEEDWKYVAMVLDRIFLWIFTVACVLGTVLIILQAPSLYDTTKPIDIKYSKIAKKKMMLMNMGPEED
Btα1/Btα2/Btα8/Btβ1 nAChR, sequence (A0A9B2JMX7 18-544): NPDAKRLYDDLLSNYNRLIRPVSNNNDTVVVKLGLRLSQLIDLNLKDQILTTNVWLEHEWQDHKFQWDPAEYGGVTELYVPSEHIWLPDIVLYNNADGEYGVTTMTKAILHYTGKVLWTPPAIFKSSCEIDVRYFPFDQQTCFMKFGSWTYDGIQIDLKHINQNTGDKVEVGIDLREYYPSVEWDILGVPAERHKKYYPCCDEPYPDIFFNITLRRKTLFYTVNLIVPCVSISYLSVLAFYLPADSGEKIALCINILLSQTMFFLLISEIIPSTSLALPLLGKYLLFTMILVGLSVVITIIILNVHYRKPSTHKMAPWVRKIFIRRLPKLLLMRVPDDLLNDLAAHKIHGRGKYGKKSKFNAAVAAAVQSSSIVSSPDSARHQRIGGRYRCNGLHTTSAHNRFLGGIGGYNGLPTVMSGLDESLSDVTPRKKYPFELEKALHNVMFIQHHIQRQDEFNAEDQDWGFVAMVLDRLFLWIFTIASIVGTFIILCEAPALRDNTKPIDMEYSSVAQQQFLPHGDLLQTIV
Btα1/Btα2/Btα8/Btβ1 nAChR, sequence (A0A9B2JDZ7 22-535): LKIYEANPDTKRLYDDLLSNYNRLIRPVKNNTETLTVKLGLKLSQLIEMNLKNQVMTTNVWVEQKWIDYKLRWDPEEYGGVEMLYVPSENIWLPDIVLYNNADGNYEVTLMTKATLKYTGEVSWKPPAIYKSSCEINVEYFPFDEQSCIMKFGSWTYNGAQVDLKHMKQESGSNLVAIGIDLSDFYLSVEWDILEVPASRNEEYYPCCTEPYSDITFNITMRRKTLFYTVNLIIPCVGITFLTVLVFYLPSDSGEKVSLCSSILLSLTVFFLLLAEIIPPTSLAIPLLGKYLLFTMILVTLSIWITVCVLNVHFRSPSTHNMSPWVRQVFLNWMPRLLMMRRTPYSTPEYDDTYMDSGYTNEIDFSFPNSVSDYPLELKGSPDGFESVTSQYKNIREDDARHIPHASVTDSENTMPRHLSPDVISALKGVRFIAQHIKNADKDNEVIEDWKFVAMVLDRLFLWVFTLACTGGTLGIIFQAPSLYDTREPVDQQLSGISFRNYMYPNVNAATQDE
Btα1/Btα2/Btα8/Btβ1 nAChR, sequence (A0A9B0BGM1 19-519): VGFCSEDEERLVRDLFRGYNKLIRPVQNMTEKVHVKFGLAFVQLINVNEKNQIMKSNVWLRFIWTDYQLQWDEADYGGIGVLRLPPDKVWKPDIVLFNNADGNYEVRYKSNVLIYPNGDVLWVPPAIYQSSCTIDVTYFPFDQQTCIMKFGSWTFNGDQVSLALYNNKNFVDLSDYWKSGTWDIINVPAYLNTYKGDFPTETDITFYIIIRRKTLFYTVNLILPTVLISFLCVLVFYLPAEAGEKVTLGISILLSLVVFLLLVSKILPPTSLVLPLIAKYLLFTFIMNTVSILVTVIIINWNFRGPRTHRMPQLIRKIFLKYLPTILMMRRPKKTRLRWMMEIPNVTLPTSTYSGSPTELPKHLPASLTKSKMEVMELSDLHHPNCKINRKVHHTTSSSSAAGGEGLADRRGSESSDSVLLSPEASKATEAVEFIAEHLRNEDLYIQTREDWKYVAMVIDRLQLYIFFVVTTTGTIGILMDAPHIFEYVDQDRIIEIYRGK
T1 sequence (A0A7M7MMZ9 44-627): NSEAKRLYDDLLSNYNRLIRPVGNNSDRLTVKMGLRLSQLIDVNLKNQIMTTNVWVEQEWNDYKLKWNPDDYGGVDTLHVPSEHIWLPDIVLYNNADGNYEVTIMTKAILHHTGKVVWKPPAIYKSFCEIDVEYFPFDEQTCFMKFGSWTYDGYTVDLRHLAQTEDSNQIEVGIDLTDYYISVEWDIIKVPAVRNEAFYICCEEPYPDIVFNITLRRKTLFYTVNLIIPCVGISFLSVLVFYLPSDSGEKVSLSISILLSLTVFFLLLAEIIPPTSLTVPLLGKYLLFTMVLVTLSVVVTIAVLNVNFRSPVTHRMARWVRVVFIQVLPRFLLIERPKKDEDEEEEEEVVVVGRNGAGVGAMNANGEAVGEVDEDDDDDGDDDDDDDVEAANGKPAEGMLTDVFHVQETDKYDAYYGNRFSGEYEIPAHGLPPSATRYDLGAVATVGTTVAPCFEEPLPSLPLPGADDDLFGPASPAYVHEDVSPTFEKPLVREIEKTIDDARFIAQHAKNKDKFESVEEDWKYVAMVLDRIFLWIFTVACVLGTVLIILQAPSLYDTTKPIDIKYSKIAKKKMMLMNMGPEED
T1 sequence (A0A8U0WQD1 18-541): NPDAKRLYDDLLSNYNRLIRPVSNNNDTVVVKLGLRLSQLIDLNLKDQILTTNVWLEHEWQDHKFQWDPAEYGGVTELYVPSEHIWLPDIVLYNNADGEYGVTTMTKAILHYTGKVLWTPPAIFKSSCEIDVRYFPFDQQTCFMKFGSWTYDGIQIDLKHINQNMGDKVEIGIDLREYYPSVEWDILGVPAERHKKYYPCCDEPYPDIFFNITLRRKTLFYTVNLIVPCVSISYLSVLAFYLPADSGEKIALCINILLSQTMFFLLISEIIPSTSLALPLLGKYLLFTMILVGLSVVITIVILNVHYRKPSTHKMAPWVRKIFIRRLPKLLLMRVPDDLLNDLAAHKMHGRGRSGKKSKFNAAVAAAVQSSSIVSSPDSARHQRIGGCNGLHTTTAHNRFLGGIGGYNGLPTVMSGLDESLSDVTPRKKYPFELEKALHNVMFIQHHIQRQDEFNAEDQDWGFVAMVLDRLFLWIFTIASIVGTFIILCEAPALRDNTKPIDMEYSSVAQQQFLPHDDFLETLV
T1 sequence (A0A8U0WQ70 25-537): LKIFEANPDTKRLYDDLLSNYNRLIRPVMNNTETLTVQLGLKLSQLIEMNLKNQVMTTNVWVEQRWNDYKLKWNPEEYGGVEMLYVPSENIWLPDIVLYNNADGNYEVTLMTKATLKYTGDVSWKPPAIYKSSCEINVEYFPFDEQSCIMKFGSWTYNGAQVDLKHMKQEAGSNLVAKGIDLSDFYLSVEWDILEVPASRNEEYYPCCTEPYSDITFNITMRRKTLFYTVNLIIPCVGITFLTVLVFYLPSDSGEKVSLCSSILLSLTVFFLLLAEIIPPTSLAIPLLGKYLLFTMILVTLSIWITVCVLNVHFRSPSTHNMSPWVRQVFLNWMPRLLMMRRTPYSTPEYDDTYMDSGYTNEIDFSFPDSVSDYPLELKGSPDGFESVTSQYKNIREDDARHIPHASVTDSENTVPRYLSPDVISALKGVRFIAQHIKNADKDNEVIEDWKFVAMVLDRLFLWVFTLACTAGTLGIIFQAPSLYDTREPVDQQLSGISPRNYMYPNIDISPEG
T1 sequence (A0A8U0WQC0 25-520): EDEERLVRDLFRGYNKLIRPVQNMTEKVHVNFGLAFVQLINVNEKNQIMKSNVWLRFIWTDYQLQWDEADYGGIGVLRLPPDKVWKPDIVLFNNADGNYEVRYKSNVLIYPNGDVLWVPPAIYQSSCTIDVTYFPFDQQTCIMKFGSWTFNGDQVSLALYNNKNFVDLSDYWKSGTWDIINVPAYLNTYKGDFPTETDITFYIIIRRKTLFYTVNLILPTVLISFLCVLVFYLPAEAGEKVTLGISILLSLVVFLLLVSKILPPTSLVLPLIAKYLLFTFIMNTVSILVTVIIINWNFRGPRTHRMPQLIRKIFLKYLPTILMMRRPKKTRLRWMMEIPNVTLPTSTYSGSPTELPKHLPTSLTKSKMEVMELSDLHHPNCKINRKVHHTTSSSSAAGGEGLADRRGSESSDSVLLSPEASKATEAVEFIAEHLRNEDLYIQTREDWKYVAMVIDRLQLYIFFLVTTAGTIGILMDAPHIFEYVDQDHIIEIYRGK

## CN/C(=N\[N+](=O)[O-])NCc1cnc(Cl)s1 [clothianidin]
[1]
  EC50: 38.9 nM
[2]
  EC50: 8.13 nM
Dα1/Dβ1 nAChR; read-out: Clothianidin / Imax
  Emax: 29.6 ± 1.3%
Dα1/Dα2/Dβ1 nAChR; read-out: Clothianidin / Imax
  Emax: 46.7 ± 2.1%
[3]; read-out: Clothianidin / Imax
  Emax: 76.6 ± 2.4%

## N#C/N=C1\SCCN1Cc1ccc(Cl)nc1 [thiacloprid]
[1]
  EC50: 72.4 nM
[2]
  EC50: 6.92 nM
Dα1/Dβ1 nAChR; read-out: Thiacloprid / Imax
  Emax: 6.5 ± 0.5%
Dα1/Dα2/Dβ1 nAChR; read-out: Thiacloprid / Imax
  Emax: 2 ± 0.2%
[3]; read-out: Thiacloprid / Imax
  Emax: 3.7 ± 0.3%

## O=[N+]([O-])NC1=NCCN1Cc1ccc(Cl)nc1 [imidacloprid]
[1]
  EC50: 39.8 nM
[2]
  EC50: 33.1 nM
Dα1/Dβ1 nAChR; read-out: Imidacloprid / Imax
  Emax: 11.2 ± 0.9%
Dα1/Dα2/Dβ1 nAChR; read-out: Imidacloprid / Imax
  Emax: 4.6 ± 0.4%
[3]; read-out: Imidacloprid / Imax
  Emax: 7 ± 0.5%
